From patent US20230121952A1 (INFLAZOME LIMITED, priority 2020, published 2023)

Experiments:
NLRP3 [1] = target: T1, NLRP3 (Homo sapiens, UniProt Q96P20); assay: Human whole blood IL-1β release assay; assay type: cell-based; design: Human whole blood in Li-heparin tubes was obtained from healthy donors; from tissue; host or cells: human whole blood from healthy volunteer donors, LPS-primed, nigericin-stimulated; details: 1 μg/ml LPS, compound 3 hrs, nigericin 10 μM 1 hr, IL-1β in supernatant (AlphaLisa), read-out: HWB IC50
Procedure: For systemic delivery, the ability to inhibit NLRP3 when the compounds are present within the bloodstream is of great importance. For this reason, the NLRP3 inhibitory activity of a number of compounds in human whole blood was investigated in accordance with the following protocol.
Human whole blood in Li-heparin tubes was obtained from healthy donors from a volunteer donor panel. • 1. Plate out 80 μl of whole blood containing 1 μg/ml of LPS in 96-well, clear bottom cell culture plate (Corning #3585) • 2. Add 10 μl compound (8 points half-log dilution with 10 μM top dose) or vehicle (DMSO 0.1% FAC) to the appropriate wells • 3. Incubate for 3 hrs at 37° C., 5% CO2 • 4. Add 10 μl nigericin (Sigma #N7143) (10 μM FAC) to all wells • 5. Incubate for 1 hr at 37° C., 5% CO2 • 6. At the end of the incubation period, spin plates at 300×g for 5 mins to pellet cells and remove 20 μl of supernatant and add to 96-well v-bottom plates for IL-1β analysis (note: these plates containing the supernatants can be stored at −80° C. to be analysed at a later date) • 7. IL-1β was measured according to the manufacturer protocol (Perkin Elmer-AlphaLisa IL-1 Kit AL220F-5000) • 8. IC50 data is fitted to a non-linear regression equation (log inhibitor vs response-variable slope 4-parameters)

NLRP3 [2] = target: T1, NLRP3; assay: THP-1 cells pyroptosis assay; assay type: cell-based; design: Seed THP-1 cells (25,000 cells/well) containing 1.0 μg/ml LPS; host or cells: THP-1 cells, LPS-primed, nigericin-stimulated; details: 1.0 μg/ml LPS, compound 3 hrs, nigericin 5 μM 1 hr, resazurin readout
Procedure: THP-1 cells (ATCC #TIB-202) were grown in RPMI containing L-glutamine (Gibco #11835) supplemented with 1 mM sodium pyruvate (Sigma #S8636) and penicillin (100 units/ml)/streptomycin (0.1 mg/ml) (Sigma #P4333) in 10% Fetal Bovine Serum (FBS) (Sigma #F0804). The cells were routinely passaged and grown to confluency (˜10^6 cells/ml). On the day of the experiment, THP-1 cells were harvested and resuspended into RPMI medium (without FBS). The cells were then counted and viability (>90%) checked by Trypan blue (Sigma #T8154). Appropriate dilutions were made to give a concentration of 625,000 cells/ml. To this diluted cell solution was added LPS (Sigma #L4524) to give a […] Final Assay Concentration (FAC). 40 μl of the final preparation was aliquoted into each well of a 96-well plate. The plate thus prepared was used for compound screening.
The following method step-by-step assay was followed for compound screening. • 1. Seed THP-1 cells (25,000 cells/well) containing 1.0 μg/ml LPS in 40 μl of RPMI medium (without FBS) in 96-well, black walled, clear bottom cell culture plates coated with poly-D-lysine (VWR #734-0317) • 2. Add 5 μl compound (8 points half-log dilution, with 10 μM top dose) or vehicle (DMSO 0.1% FAC) to the appropriate wells • 3. Incubate for 3 hrs at 37° C., 5% CO2 • 4. Add 5 μl nigericin (Sigma #N7143) (FAC 5 μM) to all wells • 5. Incubate for 1 hr at 37° C., 5% CO2 • 6. At the end of the incubation period, spin plates at 300×g for 3 mins and remove supernatant • 7. Then add 50 μl of resazurin (Sigma #R7017) (FAC 100 μM resazurin in RPMI medium without FBS) and incubate plates for a further 1-2 hrs at 37° C. and 5% CO2 • 8. Plates were read in an Envision reader at Ex 560 nm and Em 590 nm • 9. IC50 data is fitted to a non-linear regression equation (log inhibitor vs response-variable slope 4-parameters) 96-well Plate Map

T1 sequence (Q96P20 whole entry): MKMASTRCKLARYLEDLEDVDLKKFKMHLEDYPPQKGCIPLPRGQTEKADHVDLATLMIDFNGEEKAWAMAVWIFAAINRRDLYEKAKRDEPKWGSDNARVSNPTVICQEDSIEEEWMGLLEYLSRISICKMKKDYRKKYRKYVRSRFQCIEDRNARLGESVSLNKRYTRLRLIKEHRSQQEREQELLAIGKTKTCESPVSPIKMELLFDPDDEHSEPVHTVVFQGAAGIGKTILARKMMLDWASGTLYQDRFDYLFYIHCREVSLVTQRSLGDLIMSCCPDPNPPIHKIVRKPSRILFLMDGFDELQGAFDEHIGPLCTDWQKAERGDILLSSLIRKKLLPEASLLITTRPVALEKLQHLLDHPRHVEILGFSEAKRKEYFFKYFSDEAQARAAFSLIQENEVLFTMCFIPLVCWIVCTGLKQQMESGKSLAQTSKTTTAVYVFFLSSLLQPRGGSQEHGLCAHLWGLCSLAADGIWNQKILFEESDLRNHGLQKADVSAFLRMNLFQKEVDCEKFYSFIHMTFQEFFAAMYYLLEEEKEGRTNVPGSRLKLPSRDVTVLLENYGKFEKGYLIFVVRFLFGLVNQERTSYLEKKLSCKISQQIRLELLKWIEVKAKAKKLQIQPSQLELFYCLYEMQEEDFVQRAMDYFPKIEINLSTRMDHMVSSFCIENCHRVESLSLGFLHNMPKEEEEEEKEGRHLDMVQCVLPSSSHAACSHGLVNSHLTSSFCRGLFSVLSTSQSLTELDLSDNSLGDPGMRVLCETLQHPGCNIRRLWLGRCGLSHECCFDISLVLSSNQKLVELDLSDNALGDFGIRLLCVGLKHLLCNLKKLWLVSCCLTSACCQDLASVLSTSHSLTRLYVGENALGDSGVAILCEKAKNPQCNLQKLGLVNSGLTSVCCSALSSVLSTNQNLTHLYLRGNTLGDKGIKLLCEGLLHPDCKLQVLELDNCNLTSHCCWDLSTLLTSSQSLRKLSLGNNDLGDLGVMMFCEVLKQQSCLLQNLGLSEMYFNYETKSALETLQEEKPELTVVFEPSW

Compound	IC50 (NLRP3 [1]) [nM]	IC50 (NLRP3 [2]) [nM]
CC1(C)COc2cc(ccn2)-c2ccc3c(c2Nc2nnc([nH]2)S(=O)(=O)N2CC4(CCN1C4)C2)CCC3 [Example 10, 23,23-dimethyl-25-oxa-16λ^6-thia-11,13,14,17,22,27,33-heptaazaheptacyclo[24.3.1.1^12,15.1^17,19.1^19,22.0^2,10.0^5,9]tritriaconta-1(29),2,4,9,12,14,26(30),27-octaene-16,16-dioxide]	≤ 500	≤ 100
O=S1(=O)c2nnc([nH]2)Nc2c(ccc3c2CCC3)-c2ccnc(c2)OCCN2CCC3(C2)CN1C3 [Example 3, 25-oxa-16λ^6-thia-11,13,14,17,22,27,33-heptazaheptacyclo-[24.3.1.1^12,15.1^17,19.1^19,22.0^2,10.0^5,9]tritriaconta-1(29),2,4,9,12,14,26(30),27-octaene 16,16-dioxide]	≤ 500	≤ 100
O=S1(=O)c2nnc([nH]2)Nc2c(ccc3c2CCC3)-c2ccnc(c2)OCCN2CCCC23CCN1CC3 [Example 5, 8-oxa-28λ^6-thia-5,10,23,25,26,29,34-heptazaheptacyclo-[27.2.2.1^9,13.1^24,27.0^1,5.0^14,22.0^17,21]pentatriaconta-9(35),10,12,14,16,21,24,26-octaene 28,28-dioxide]	≤ 500	≤ 500
CN1CCOc2cc(ccn2)-c2ccc3c(c2Nc2nnc([nH]2)S(=O)(=O)N2CC[C@@H](C1)C2)CCC3 [Example 12, (20S)-22-methyl-25-oxa-16λ^6-thia-11,13,14,17,22,27,32-heptaazahexacyclo[24.3.1.1^12,15.1^17,20.0^2,10.0^5,9]dotriaconta-1(29),2,4,9,12,14,26(30),27-octaene-16,16-dioxide]	≤ 500	≤ 500
CN1CCOc2cc(ccn2)-c2ccc3c(c2Nc2nnc([nH]2)S(=O)(=O)N2CC(C1)C2)CCC3 [Example 11, 21-methyl-24-oxa-16λ^6-thia-11,13,14,17,21,26,31-heptaazahexacyclo-[23.3.1.1^12,15.1^17,19.0^2,10.0^5,9]hentriaconta-1(28),2,4,9,12,14,25(29),26-octaene-16,16-dioxide]	≤ 500	≤ 100
Cc1cc2c(c3c1-c1ccnc(c1)OCCCN1CCC4(C1)CN(C4)S(=O)(=O)c1nnc([nH]1)N3)CCC2 [Example 4, 3-methyl-26-oxa-16λ^6-thia-11,13,14,17,22,28,34-heptazaheptacyclo-[25.3.1.1^12,15.1^17,19.1^19,22.0^2,10.0^5,9]tetratriaconta-1(30),2,4,9,12,14,27(31),28-octaene 16,16-dioxide]	≤ 500	≤ 100
